Literature values as cited in patent US9302241B2, “Method of preparing lipid nanoparticles” (UNIVERSITE D'ANGERS, priority 2008, dated 2016).

Settings: concentration of Fondaparinux in its brand form Arixtra

Fondaparinux
solubility in water: greater than 12.5 mg/ml
